Earlier results, collected in US20160151380A1, “THERAPIES FOR DISEASES CAUSED BY ARTHROPOD-BORNE PARASITES” (THE REGENTS OF THE UNIVERSITY OF CALIFORNIA, priority 2013, published 2016).

Target: T1, PKCepsilon (Homo sapiens, UniProt Q02156)
T1 sequence (Q02156 1-737): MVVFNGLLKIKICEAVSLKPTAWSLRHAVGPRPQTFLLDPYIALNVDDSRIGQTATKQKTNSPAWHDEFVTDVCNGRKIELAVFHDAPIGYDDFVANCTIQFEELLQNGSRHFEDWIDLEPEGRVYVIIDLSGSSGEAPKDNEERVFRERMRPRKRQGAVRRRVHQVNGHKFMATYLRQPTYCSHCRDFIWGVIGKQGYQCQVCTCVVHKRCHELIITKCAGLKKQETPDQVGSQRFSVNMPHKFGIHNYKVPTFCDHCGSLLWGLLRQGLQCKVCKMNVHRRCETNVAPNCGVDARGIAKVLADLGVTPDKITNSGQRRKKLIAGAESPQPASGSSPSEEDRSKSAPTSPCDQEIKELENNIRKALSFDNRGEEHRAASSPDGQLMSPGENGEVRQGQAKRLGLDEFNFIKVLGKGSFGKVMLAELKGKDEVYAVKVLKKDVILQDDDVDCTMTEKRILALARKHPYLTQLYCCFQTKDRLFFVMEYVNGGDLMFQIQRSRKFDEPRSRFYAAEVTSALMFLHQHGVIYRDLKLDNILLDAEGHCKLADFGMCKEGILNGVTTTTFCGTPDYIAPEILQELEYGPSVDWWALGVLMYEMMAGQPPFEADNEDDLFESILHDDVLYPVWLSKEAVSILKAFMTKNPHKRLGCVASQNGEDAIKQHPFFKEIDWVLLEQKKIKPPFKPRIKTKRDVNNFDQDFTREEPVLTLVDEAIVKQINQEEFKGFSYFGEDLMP
Conditions: PKCepsilon; cited from earlier work

Molecule | IC50 [µM] | Kd [µM]
CC(C)(C)c1nc2c3cc[nH]c(=O)c3c3cc(F)ccc3c2[nH]1 [BCP9000906] | 0.5 | –
Cdk1/2 Inhibitor III | > 0.05 | –
CCc1cccc(OCCOCCN2CC(C)OC(C)C2)c1 (stereo not drawn) [SureCN2934634] | 0.0016 | –
CC1CCCN(CCOCCOc2ccc(Cl)cc2C(C)(C)C)C1 (stereo not drawn) [SureCN2934911] | 0.036 | –
Cc1c(Nc2c(C#N)cncc2/C=C/CCN2CCC[C@@H](N)C2)ccc2[nH]ccc12 [CHEMBL606245] | 0.014 | –
O=C(OC1CCCC1Cc1ccc(O)cc1)c1cc(O)c(C(=O)c2c(O)cccc2C(=O)O)c(O)c1 (stereo not drawn) [CHEMBL295806] | 0.12 | –
O=C1NC(=O)C(c2c[nH]c3ccccc23)=C1c1c[nH]c2ccccc12 [Bisindolylmaleimide IV, 3,4-bis(1H-indol-3-yl)pyrrole-2,5-dione] | 0.19 | –
O=C1NC(=O)C(c2cn(CCCn3ccnc3)c3ccccc23)=C1Nc1ccccc1 [PKCb Inhibitor, 3-anilino-4-[1-(3-imidazol-1-ylpropyl)indol-3-yl]pyrrole-2,5-dione] | > 0.05 | –
Cc1cncc2cccc(S(=O)(=O)N3CCCN(C(=O)CN)C[C@@H]3C)c12 [H-1152; Glycyl] | 0.5 | –
CCN1CCOCCn2cc(c3ccccc32)C2=C(C(=O)NC2=O)c2cn(c3ccccc23)CCOCC1 [CHEMBL103055] | 0.075 | –
N=C(N)SCCCn1c(-c2cc3ccccc3s2)c(C2=CC(=O)NC2=O)c2ccccc21 [CHEMBL350335] | 0.01 | –
O=C1NC(=O)c2c1c1c3ccccc3[nH]c1c1[nH]c3ccccc3c21 [Arcyriaflavin A] | 0.31 | –
C#Cc1cccc(Nc2ncnc3cc4c(cc23)OCCOCCOCCO4)c1 [Icotinib] | > 1 | –
CCOC(=O)C(NC(=O)CCC(=O)OCC(=O)C1(O)CCC2C3CCC4=CC(=O)CCC4(C)C3C(O)CC21C)C(O)c1ccccc1 (stereo not drawn) [SureCN3774124] | 0.33 | –
Cn1cc(C2=C(c3cn(CCCSC(=N)N)c4ccccc34)C(=O)NC2=O)c2ccccc21 [Ro-31-8220, methanesulfonic acid; 3-[3-[4-(1-methylindol-3-yl)-2,5-dioxopyrrol-3-yl]indol-1-yl]propyl carbamimidothioate] | 0.01 | –
COc1ccc2c(c1)c(C1=C(c3c[nH]c4ccccc34)C(=O)NC1=O)cn2CCCN(C)C [Go6983, 3-[1-[3-(dimethylamino)propyl]-5-methoxyindol-3-yl]-4-(1H-indol-3-yl)pyrrole-2,5-dione] | > 0.15 | –
COc1c(Br)cc(Br)cc1/C=N\Nc1nc(NCc2ccccc2)nc(N2CCOCC2)n1 [SureCN5757856] | 0.14 | –
O=C1NC(=O)c2c1c1c3ccccc3n3c1c1c2c2ccccc2n1C1CCC3O1 [SB218078] | > 0.15 | –
O=C1Nc2ccc3ncsc3c2/C1=C/c1cnc[nH]1 [PKR Inhibitor] | > 0.15 | –
C[C@@H](OC(=O)c1ccc2c(c1)OCCO2)C(=O)Nc1ccc(Cl)cc1Cl [SureCN2579964] | < 0.75 | –
COc1cccc(Nc2ncnn3ccc(CN4CC[C@@H](N)[C@H](O)C4)c23)c1 [BMS-690514] | – | < 0.4
CN(C)CCCn1cc(C2=C(c3c[nH]c4ccccc34)C(=O)NC2=O)c2ccccc21 [Bisindolylmaleimide I] | < 0.025 | –
Nc1ncnc2c1c(-c1cnc3[nH]ccc3c1)nn2C1CCCC1 [PP121] | < 0.75 | –

Same assay, conditions: cited from earlier work

Molecule | Ki [µM]
CC(C)[C@H]1C(=O)N[C@H](CO)Cc2c[nH]c3cccc(c23)N1C [Indolactam V] | 0.0077

Target: MAPK14 p38 (Homo sapiens, UniProt Q16539)
Sequence (Q16539 whole entry): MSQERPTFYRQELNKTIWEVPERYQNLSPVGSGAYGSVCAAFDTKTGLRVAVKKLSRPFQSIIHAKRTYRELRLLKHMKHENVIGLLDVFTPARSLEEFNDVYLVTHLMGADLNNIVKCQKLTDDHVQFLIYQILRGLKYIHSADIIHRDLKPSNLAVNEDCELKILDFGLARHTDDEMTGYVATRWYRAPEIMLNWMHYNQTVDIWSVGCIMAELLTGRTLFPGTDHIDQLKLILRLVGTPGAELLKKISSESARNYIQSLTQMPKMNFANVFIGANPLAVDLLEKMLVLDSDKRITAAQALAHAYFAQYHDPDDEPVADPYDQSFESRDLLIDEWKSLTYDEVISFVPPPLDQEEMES
Conditions: cited from earlier work

Molecule | IC50 [µM] | Ki [µM] | Kd [µM]
CCNc1nnc2ccc(-c3ocnc3-c3ccc(F)cc3)cn12 [CHEMBL213451] | 0.0076 | – | –
Cc1ccc(C(=O)Nc2ccon2)cc1Nc1ncnc(NC2CCCC2)c1C#N [CHEMBL383172] | – | 0.0016 | –
CC(C)c1nnc2ccc(-c3ocnc3-c3ccc(F)cc3Cl)cn12 [CHEMBL215652] | 0.0025 | – | –
NC(N)=NC(=O)Cc1c(Cl)cccc1Cl [Kinome_3519] | – | 0.0002 | –
Cc1ccc(C(=O)Nc2cccc(C(F)(F)F)c2)cc1-c1ccc2nc(N)ncc2c1 [2ofv] | 0.006 | – | –
Cc1ccc(-n2nc(C(C)(C)C)cc2NC(=O)Nc2cccc3ccccc23)cc1 [CHEMBL420047] | – | – | 0.001
Cc1ccc(NC(=O)c2cccc(N(C)C)c2)cc1NC(=O)c1ccc(O)cc1 [ZM336372] | 0.18 | – | –
Cc1cccc(-c2nn(C(=S)Nc3ccccc3)cc2-c2ccnc3ccccc23)n1 [A-83-01] | 0.1 | – | –
CCC(C)C(C(=O)O)N1C(=O)C(=Cc2c(F)cccc2Cl)SC1=S (stereo not drawn) [SureCN4762364] | 0.0032 | – | –
CNC(=O)c1cc(Oc2ccc(NC(=O)Nc3ccc(Cl)c(C(F)(F)F)c3)c(F)c2)ccn1 [Regorafenib] | < 0.1 | – | –
c1ccc(-c2[nH]ncc2-c2ccnc3ccccc23)nc1 [LY364947] | 0.74 | – | –
Cc1cc(F)ccc1-c1nc(NC(CO)CO)nc2c1ccc(=O)n2-c1c(F)cccc1F [SB681323] | < 0.1 | – | –
COc1cc2ncnc(Nc3cccc(Cl)c3)c2cc1OC [AG1478] | 0.56 | – | –
COc1ccc2c(Oc3ccc(NC(=O)c4c(C)n(CC(C)(C)O)n(-c5ccccc5)c4=O)nc3)ccnc2c1 [SureCN5495613] | 0.009 | – | –
Cc1ccc(NC(=O)c2cccc(N3CCCCC3)c2)cc1-c1ccc(C(=O)NCC2CC2)cc1 [CHEMBL1964275] | – | – | < 0.01
Oc1cccc2cccnc12 [SPDD01923] | 0.00011 | – | –
CCCCCCCCCCCCCC(=NO)c1cc(OC)ccc1O [SureCN4219451] | 0.0018 | – | –
CN(C)c1ccc(C(=N)c2ccc(N(C)C)cc2)cc1 [SureCN3936664] | 0.005 | – | –
CC1=C2N=C(C=C3NC(=Cc4[nH]c(c(CCC(=O)O)c4CC(=O)O)Cc4[nH]c1c(CC(=O)O)c4CCC(=O)O)C(CCC(=O)O)C3(C)CC(=O)O)C(CCC(=O)O)C2(C)CC(=O)O (stereo not drawn) [BX517] | > 0.9 | – | –
O=C(COC(=O)C1COc2ccccc2O1)Nc1cc(C(F)(F)F)ccc1N1CCOCC1 (stereo not drawn) [SureCN4875304] | 0.54 | – | –

Target: JNK1 (Homo sapiens, UniProt P45983)
Sequence (P45983 whole entry, species assumed): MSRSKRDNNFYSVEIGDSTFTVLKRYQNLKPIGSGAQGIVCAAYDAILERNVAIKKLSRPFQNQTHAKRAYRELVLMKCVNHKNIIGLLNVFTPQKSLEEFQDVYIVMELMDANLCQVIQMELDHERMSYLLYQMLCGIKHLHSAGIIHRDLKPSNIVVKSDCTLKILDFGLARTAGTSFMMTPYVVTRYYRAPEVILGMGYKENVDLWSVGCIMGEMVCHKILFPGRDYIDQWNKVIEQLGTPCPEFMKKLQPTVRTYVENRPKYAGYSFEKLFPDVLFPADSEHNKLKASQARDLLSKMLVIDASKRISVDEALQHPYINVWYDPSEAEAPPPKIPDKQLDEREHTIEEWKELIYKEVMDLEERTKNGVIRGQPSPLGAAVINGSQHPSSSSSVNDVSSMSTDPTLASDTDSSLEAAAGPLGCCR
Conditions: cited from earlier work

Molecule | IC50 [µM] | Ki [µM] | Kd [µM]
O=C(c1ccc(Nc2nccc(-c3cc4ccccc4s3)n2)cc1)N1CCC(N2CCCC2)CC1 [K00596a] | 0.1 | – | –
O=C1NCc2c1c1c3ccccc3[nH]c1c1[nH]c3ccccc3c21 [Staurosporine aglycone] | < 0.1 | – | –
CCN(CC)C(=O)c1ccc(Nc2nc(OCC3CCCCC3)c3[nH]cnc3n2)cc1 [NU6140] | 0.5 | – | –
COCCOc1ccc2c(c1)ncn2-c1ccc2cccc(N3CCC(N)CC3)c2n1 [CP673451] | > 1 | – | –
BrCBr [Kinome_3024] | – | 0.003 | –
CCS(=O)(=O)N1CC(CC#N)(n2cc(-c3ncnc4[nH]ccc34)cn2)C1 [Baricitinib] | > 1 | – | –
CN1CC=C(c2c[nH]c3ccc(-c4cccs4)cc23)CC1 [SureCN10063060] | – | > 1 | –
COc1cc(N2CCOCC2)ccc1Nc1ncc(F)c(Nc2ccccc2NS(C)(=O)=O)n1 [CZC-25146] | < 0.6 | – | –
N#CC(c1ccnc(NCCc2cccnc2)n1)c1nc2ccccc2s1 (stereo not drawn) [AS601245] | 0.15 | – | –
CNC(=O)[C@@]1(N)C[C@H]2O[C@]1(C)n1c3ccccc3c3c4c(c5c6ccccc6n2c5c31)C(=O)NC4 [TTT-3002] | < 0.04 | – | –
N#C/C(=C1/Nc2ccccc2S1)c1ccnc(NCCc2cccnc2)n1 [CHEMBL1788116] | 0.15 | – | –
Cc1n[nH]c2ccc(-c3cncc(OC[C@@H](N)Cc4c[nH]c5ccccc45)c3)cc12 [A 443654] | > 0.9 | – | –
CC(C)(C)n1nc(Cc2cccc3ccccc23)c2c(N)ncnc21 [PP1 Analog II; 1NM-PP1] | 0.14 | – | –
CCOC(=O)Cn1nc(C(F)F)cc1C [SureCN7018367] | – | – | < 1.25
CCCC(=O)NC1=NC2C(N=CN2C2OC3OP(=O)(O)OC3C2OC(=O)CCC)C(=O)N1 (stereo not drawn) [Kinome_3028] | – | 0.003 | –
NC(=O)Nc1sc(-c2ccc(F)cc2)cc1C(N)=O [IKK-2 Inhibitor IV] | – | – | < 1.25
O=C(O)c1ccc2c(c1)nc(Nc1cccc(Cl)c1)c1ccncc12 [Silmitasertib] | > 1 | – | –
CC1=C2N=C(C=C3NC(=Cc4[nH]c(c(CCC(=O)O)c4CC(=O)O)Cc4[nH]c1c(CC(=O)O)c4CCC(=O)O)C(CCC(=O)O)C3(C)CC(=O)O)C(CCC(=O)O)C2(C)CC(=O)O (stereo not drawn) [BX517] | > 0.9 | – | –
CCCCCCOC(=O)[C@]1(O)C[C@@H]2O[C@@]1(C)n1c3ccccc3c3c4c(c5c6ccccc6n2c5c31)C(=O)NC4 [KT5720] | < 0.8 | – | –

Target: JNK3 (Homo sapiens, UniProt P53779)
Sequence (P53779 whole entry, species assumed): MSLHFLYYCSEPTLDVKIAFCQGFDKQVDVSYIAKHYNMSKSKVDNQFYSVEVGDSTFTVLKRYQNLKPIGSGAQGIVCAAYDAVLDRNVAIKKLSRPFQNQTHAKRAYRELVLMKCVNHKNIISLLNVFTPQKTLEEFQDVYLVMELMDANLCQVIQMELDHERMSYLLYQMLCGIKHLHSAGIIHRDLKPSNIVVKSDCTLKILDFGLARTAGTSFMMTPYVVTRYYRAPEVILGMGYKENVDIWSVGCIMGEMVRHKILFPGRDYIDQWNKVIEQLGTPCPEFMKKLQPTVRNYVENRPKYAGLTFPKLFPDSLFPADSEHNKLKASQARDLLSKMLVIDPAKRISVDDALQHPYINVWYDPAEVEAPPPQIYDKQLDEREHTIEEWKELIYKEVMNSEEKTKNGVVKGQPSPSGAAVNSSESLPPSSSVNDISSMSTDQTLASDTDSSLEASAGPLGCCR
Conditions: cited from earlier work

Molecule | IC50 [µM] | Kd [µM]
O=C1NCc2c1c1c3ccccc3[nH]c1c1[nH]c3ccccc3c21 [Staurosporine aglycone] | < 0.1 | –
CN(C)C[C@@H]1CCn2cc(c3ccccc32)C2=C(C(=O)NC2=O)c2cn(c3ccccc23)CCO1 [Ruboxistaurin] | > 0.9 | –
COc1cc(N2CCOCC2)ccc1Nc1ncc(F)c(Nc2ccccc2NS(C)(=O)=O)n1 [CZC-25146] | < 0.6 | –
COc1ccc(-c2cc3nccn3c(Nc3ncccc3C(N)=O)n2)cc1OC [Syk Inhibitor IV] | < 0.4 | –
CNC(=O)[C@@]1(N)C[C@H]2O[C@]1(C)n1c3ccccc3c3c4c(c5c6ccccc6n2c5c31)C(=O)NC4 [TTT-3002] | < 0.06 | –
Cc1n[nH]c2ccc(-c3cncc(OC[C@@H](N)Cc4c[nH]c5ccccc45)c3)cc12 [A 443654] | > 0.9 | –
CCOC(=O)Cn1nc(C(F)F)cc1C [SureCN7018367] | – | < 0.01
Cn1c2ccccc2c2c3c(c4c5ccccc5n(CCC#N)c4c21)CNC3=O [Go6976, 5,6,7,13-Tetrahydro-13-methyl-5-oxo-12H-indolo[2,3-a]pyrrolo[3,4-c]carbazole-12-propa-nenitrile] | > 0.3 | –
O=C1c2ccccc2-c2nc3nnnn3nc21 [PDK1/Akt/Flt Inhibitor] | 0.5 | –
CN1CCC(CNc2ccc3ncc(-c4cccc(OC(F)(F)F)c4)n3n2)CC1 [SGI-1776] | > 1 | –
O=C(O)c1ccc(-c2c[nH]c3ncc(-c4ccccc4)cc23)cc1C1CCCC1 [GSK650394A] | > 0.6 | –
O=C(O)c1ccc2c(c1)nc(Nc1cccc(Cl)c1)c1ccncc12 [Silmitasertib] | > 1 | –
